Data set [1] deals with ventricular arrhythmias induced by chloroform. Briefly: Antiarrhythmic activity: prevention of chloroform-induced ventricular flutter and fibrillation in mice. Conditions: for ED40 / ED50 / ED20: Mus musculus, sc, 0.5 h; for ED50: read-out: ED50 (95% confidence limit); for Therapeutic index: ratio of LD50 and ED50. On the procedure: At the time when they ceased to breathe, electrocardiogram of each animal was recorded to observe the flutter and fibrillation of the ventricle.
The abnormalities of ventriculus as observed in these animals can be prevented by previous administration of a substance showing antiarrhythmic activity. A compound of this invention, at various dosages, was subcutaneously injected to mice grouped by 29-40 heads. Thirty minutes later these mice were treated with chloroform to induce arrhythmias. Prophylaxis percentages of the flutter and fibrillation of ventricle for each dosage were calculated.

The subject of data set [2] is ddY strain male mice. Briefly: in vivo. The following applies: mouse.
Data set [3] in a line: in vivo. Conditions: mouse.

This is an account of results in patent US4564624A, “8-(Substituted N-phenylcarboxamidomethyl) pyrrolizidines and use thereof as antiarrhythmics” (Suntory Ltd., priority 1982, dated 1986).

Usually ED50 stands for the midpoint of the dose-response relation. By LD50 is commonly meant the dose expected to kill half of the subjects tested. Low readings indicate a more toxic substance, high ones a less toxic substance. Take `Cc1ccccc1NC(=O)CC12CCCN1CCC2` [Compound 1, N-(2-methylphenyl)-8-pyrrolizidineacetamide]: in data set [1], the ED40 stood at 100 mg/kg and the median effective dose (ED50) was above 100 mg/kg. The compound further returned a 50% lethal dose (LD50) in data set [2] of 385 mg/kg.

As to `Cc1ccc(NC(=O)CC23CCCN2CCC3)cc1` [Compound 2, N-(4-methylphenyl)-8-pyrrolizidineacetamide], the ED20 in data set [1] was 100 mg/kg. The compound also yielded an LD50 in data set [2] of 413 mg/kg.

Consider `O=C(CC12CCCN1CCC2)Nc1ccccc1Cl` [Compound 3, N-(2-chlorophenyl)-8-pyrrolizidineacetamide], for which, in data set [1], the ED20 was found to be 100 mg/kg and the ED50 is above 100 mg/kg. The same compound returned an LD50 in data set [2] of 347 mg/kg.

With `O=C(CC12CCCN1CCC2)Nc1ccccc1Br` [Compound 4, N-(2-bromophenyl)-8-pyrrolizidineacetamide], in data set [1], the ED50 was 59 mg/kg and the Therapeutic index is reported as 7.54. In data set [2], this compound came in with a 50% lethal dose (LD50) of 445 mg/kg.

For the compound `COc1ccccc1NC(=O)CC12CCCN1CCC2` [Compound 5, N-(2-methoxyphynyl)-8-pyrrolizidineacetamide], in data set [1], the ED40 is 100 mg/kg and the ED50 was above 100 mg/kg. Moreover, the median lethal dose (LD50) in data set [2] is 381 mg/kg.

With `COc1cccc(NC(=O)CC23CCCN2CCC3)c1` [Compound 6, N-(3-methoxyphenyl)-8-pyrrolizidineacetamide], in data set [1], the ED40 was 100 mg/kg and the 50% effective dose (ED50) is above 100 mg/kg. Moreover, in data set [2], the 50% lethal dose (LD50) was found to be 417 mg/kg.

Regarding `COc1ccc(NC(=O)CC23CCCN2CCC3)cc1` [Compound 7, N-(4-methoxyphenyl)-8-pyrrolizidineacetamide], in data set [1], the ED50 was 60 mg/kg and the Therapeutic index was 4.80. The median lethal dose (LD50) in data set [2] is 288 mg/kg.

As for `Nc1ccccc1NC(=O)CC12CCCN1CCC2` [Compound 8, N-(2-aminophenyl)-8-pyrrolizidineacetamide], in data set [1], the ED50 is 100 mg/kg and the Therapeutic index is 6.33. In data set [2], this compound showed a median lethal dose (LD50) of 633 mg/kg.

As for `Cc1cccc(NC(=O)CC23CCCN2CCC3)c1C` [Compound 9, N-(2,3-dimetylphenyl)-8-pyrrolizidineacetamide], in data set [1], the 50% effective dose (ED50) was found to be 64 mg/kg and the Therapeutic index is 7.33. In data set [2], the LD50 turned out to be 469 mg/kg.

In the case of `Cc1ccc(NC(=O)CC23CCCN2CCC3)c(C)c1` [Compound 10, N-(2,4-dimethylphenyl)-8-pyrrolizidineacetamide], in data set [1], the ED40 is 100 mg/kg and the ED50 was above 100 mg/kg. The compound also came in with a median lethal dose (LD50) in data set [3] of 398 mg/kg.

With `Cc1ccc(C)c(NC(=O)CC23CCCN2CCC3)c1` [Compound 11, N-(2,5-dimethylphenyl)-8-pyrrolizidineacetamide], in data set [1], the ED50 was determined as 72 mg/kg and the Therapeutic index came to 5.56. Besides, the LD50 in data set [2] is 400 mg/kg.

For the compound `Cc1cccc(C)c1NC(=O)CC12CCCN1CCC2` [Compound 12, N-(2,6-dimethylphenyl)-8-pyrrolizidineacetaminde], the ED50 in data set [1] turned out to be 24 mg/kg.

Regarding `Cc1ccc(NC(=O)CC23CCCN2CCC3)cc1C` [Compound 13, N-(3,4-dimethylphenyl)-8-pyrrolizidineacetamide], in data set [1], the ED50 was found to be 76 mg/kg and the Therapeutic index was found to be 7.36. Besides, the LD50 in data set [2] turned out to be 559 mg/kg.

Take `Cc1cc(C)cc(NC(=O)CC23CCCN2CCC3)c1` [Compound 14, N-(3,5-dimethylphenyl)-8-pyrrolizidineacetamide]: in data set [1], the 50% effective dose (ED50) amounted to 52 mg/kg and the Therapeutic index came out at 6.83. This compound gave an LD50 in data set [2] of 355 mg/kg.

Regarding `COc1ccc(OC)c(NC(=O)CC23CCCN2CCC3)c1` [Compound 15, N-(2,5-dimethoxyphenyl)-8-pyrrolizidineacetamide], in data set [1], the ED50 came to 90 mg/kg and the Therapeutic index came out at 2.26. For the same compound, in data set [2], the LD50 amounted to 203 mg/kg.

With `O=C(CC12CCCN1CCC2)Nc1c(Cl)cccc1Cl` [Compound 16, N-(2,6-dichlorophenyl)-8-pyrrolizidineacetamide], in data set [1], the ED20 worked out at 100 mg/kg and the 50% effective dose (ED50) is above 100 mg/kg. For the same compound, the LD50 in data set [2] was 200 mg/kg.

Turning to `CCc1cccc(CC)c1NC(=O)CC12CCCN1CCC2` [Compound 17, N-(2,6-diethylphenyl)-8-pyrrolizidineacetamide], in data set [1], the median effective dose (ED50) is 28 mg/kg and the Therapeutic index is reported as 9.93. The compound also registered a 50% lethal dose (LD50) in data set [2] of 278 mg/kg.

Turning to `Cc1cc(C)c(NC(=O)CC23CCCN2CCC3)c(C)c1` [Compound 18, N-(2,4,6-trimethylphenyl)-8-pyrrolizidineacetamide], in data set [1], the 50% effective dose (ED50) amounted to 34 mg/kg and the Therapeutic index amounted to 9.09. The LD50 in data set [2] came to 309 mg/kg.
